The values below come from patent US6887896B1, “7-[(7-Alkoxy)-chrom-3-en-6-yl]-heptatrienoic acid and 7-[(3-alkoxy)-5,6-dihydronaphthalen-2-yl]-heptatrienoic acid derivatives having serum glucose reducing activity” (Allergan, Inc., priority 2003, dated 2005).

The target of assay [1] is T1, RXRβ (UniProt P28704).
T1 sequence (P28704 1-520): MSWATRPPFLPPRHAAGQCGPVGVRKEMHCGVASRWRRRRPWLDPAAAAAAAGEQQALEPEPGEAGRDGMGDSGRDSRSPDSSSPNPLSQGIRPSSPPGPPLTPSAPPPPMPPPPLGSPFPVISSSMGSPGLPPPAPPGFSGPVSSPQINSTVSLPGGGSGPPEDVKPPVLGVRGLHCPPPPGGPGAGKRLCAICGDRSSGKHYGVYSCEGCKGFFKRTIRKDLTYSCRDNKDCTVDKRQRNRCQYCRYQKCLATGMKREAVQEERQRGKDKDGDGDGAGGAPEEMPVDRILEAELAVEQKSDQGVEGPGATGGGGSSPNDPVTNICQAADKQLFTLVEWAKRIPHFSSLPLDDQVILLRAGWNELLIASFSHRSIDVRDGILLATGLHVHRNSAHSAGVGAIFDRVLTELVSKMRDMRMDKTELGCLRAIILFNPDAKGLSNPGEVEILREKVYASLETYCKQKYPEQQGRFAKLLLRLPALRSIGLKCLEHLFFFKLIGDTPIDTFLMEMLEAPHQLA
The assay can be described thus: ligand binding assay, RXRβ. The following applies: for Ki: read-out: RXR Bind Ki β; for Kd: Table 9 (Formula F), read-out: RXR β Kd. The source says:
(§1) Specifically, one such assay is a chimeric receptor transactivation assay which tests for agonist-like activity in the R RAPE and RAR7 receptor subtypes, and which is based on work published by Feigner, P. L. and Holm, M (1989) Focus, 112 is described in detail in U.S. Pat. No. 5,455,265. The specification of U.S. Pat. No. 5,455,265 is hereby expressly incorporated by reference. A holoreceptor transactivation assay and a ligand binding assay which measure the antagonist/agonist like activity of the compounds of the invention, or their ability to bind to the several retinoid receptor subtypes, respectively, are described in published PCT Application No. WO WO93/11755 (particularly on pages 30-33 and 37-41) published on Jun. 24, 1993, the specification of which is also incorporated herein by reference. A detailed experimental procedure for holoreceptor transactivations has been described by Heyman et al. Cell 68, 397-406, (1992); Allegretto et al. J. Biol. Chem. 268, 26625-26633, and Mangelsdorf et al. The Retinoids: Biology, Chemistry and Medicine, pp 319-349, Raven Press Ltd., New York, which are expressly incorporated herein by reference. The results obtained in this assay are expressed in EC50 numbers, as they are also in the chimeric receptor transactivation assay. The results of the ligand binding assay are expressed in Ki numbers. (See Cheng et al. Biochemical Pharmacology Vol. 22 pp 3099-3108, expressly incorporated herein by reference.)
(§2) Generally speaking, in the tables disclosing the results of transactivation and binding assays the numbers in parentheses indicate efficacy as a percentage compared to the standard compound, (2E,4E,1′S,2′S)-3-methyl-5-[2′-methyl-2′-(5,5,8,8-tetramethyl-5,6,7,8-tetrahydro-naphthalen-2-yl)cyclopropyl]-penta-2,4-dienoic acid and the other numbers indicate the measured EC50 and K; in nanomolar concentration.

Assay [2] concerns the target T2, RARα (Homo sapiens, UniProt P10276).
T2 sequence (P10276 1-462): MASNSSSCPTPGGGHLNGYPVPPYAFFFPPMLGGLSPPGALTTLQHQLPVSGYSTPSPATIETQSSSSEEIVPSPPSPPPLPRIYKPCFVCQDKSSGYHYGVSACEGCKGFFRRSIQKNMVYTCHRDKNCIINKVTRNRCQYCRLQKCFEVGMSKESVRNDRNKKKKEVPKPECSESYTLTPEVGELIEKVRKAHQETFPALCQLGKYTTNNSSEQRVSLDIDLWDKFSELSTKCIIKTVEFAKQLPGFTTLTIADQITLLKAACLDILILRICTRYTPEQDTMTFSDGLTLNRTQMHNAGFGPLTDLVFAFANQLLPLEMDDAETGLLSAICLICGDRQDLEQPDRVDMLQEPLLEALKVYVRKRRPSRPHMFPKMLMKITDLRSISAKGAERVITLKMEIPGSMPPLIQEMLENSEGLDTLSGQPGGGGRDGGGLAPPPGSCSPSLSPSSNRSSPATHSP
The assay can be described thus: ligand binding assay, RARα. The following applies: for Ki: read-out: RAR Bind. Ki α; for Kd: Table 9 (Formula F), read-out: RAR α Kd.
From the text: as §1, §2

Assay [3] deals with T3, RXRα (Homo sapiens, UniProt P19793).
T3 construct: expressed in transfected cells
T3 sequence (P19793 1-462): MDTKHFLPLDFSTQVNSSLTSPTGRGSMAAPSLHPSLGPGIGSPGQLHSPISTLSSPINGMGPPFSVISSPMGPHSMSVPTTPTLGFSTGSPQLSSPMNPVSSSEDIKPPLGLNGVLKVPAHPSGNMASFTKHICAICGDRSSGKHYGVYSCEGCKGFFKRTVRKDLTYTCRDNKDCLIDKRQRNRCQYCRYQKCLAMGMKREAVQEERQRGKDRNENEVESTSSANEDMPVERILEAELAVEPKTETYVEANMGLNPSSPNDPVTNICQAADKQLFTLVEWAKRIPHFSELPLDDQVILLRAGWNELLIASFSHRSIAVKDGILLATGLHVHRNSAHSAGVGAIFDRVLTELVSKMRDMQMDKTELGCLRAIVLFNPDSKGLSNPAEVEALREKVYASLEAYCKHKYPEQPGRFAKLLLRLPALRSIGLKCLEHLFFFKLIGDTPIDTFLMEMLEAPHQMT
The assay can be described thus: holoreceptor transactivation assay, RXRα. Type of assay: cell-based. The following applies: for EC50: holoreceptor transactivation, read-out: RXR Trans. EC50 α; for Emax: percentage compared to the standard compound, read-out: RXR Trans. efficacy (number in parentheses) α.
From the text: as §1
Efficacy in a transactivation assay is expressed as a percentage of the maximum potency attained by the compound compared to a standard which, in this case, is the compound named (2E,4E,1′S,2′S)-3-methyl-5-[2′-methyl-2′-(5,5,8,8-tetramethyl-5,6,7,8-tetrahydro-naphthalen-2-yl)-cyclopropyl]-penta-2,4-dienoic acid. This standard compound is described in U.S. Pat. No. 6,114,533.
The specification of this application for patent is organized in several sections in accordance with structural Formulas A through F each of which discloses a group of preferred compounds within the scope of the invention. Tables that disclose the activity of certain exemplary compounds of the invention in the above-described RXR receptor transactivation and binding assays are found in the corresponding sections. […] The transactivation data pertaining to the activation of RXR receptors were obtained in the holoreceptor assay.
as §2

The structures appear in SMILES notation.

What is called Ki is the dissociation constant of the complex between target and ligand, obtained from inhibition or displacement. In general, EC50 refers to the concentration giving half of the maximal effect. `CCOc1c(\C(=C/C=C/C(C)=C/C(=O)O)CC)cc2c(c1Cl)OC(C)(C)C=C2C(C)C` [Compound 51]: the Ki in assay [1] was found to be 0.112 µM. In addition, the Ki in assay [2] is 0.422 µM. In assay [3], the 50% effective concentration (EC50) was found to be 0.009 µM and the Emax was 25%.

Take `CCOc1cc2c(cc1\C(CC)=C(F)/C=C/C(C)=C/C(=O)O)C=CCC2(C)C` [Compound A-77]: the Ki in assay [1] was 0.063 µM; in assay [2], 0.301 µM. Besides, the EC50 in assay [3] amounted to 0.041 µM. Further, in assay [3], the Emax stood at 69%.

For the molecule `CCOc1c(\C(C)=C/C=C/C(C)=C/C(=O)O)cc2c(c1Cl)OC(C)(C)C=C2C(C)C` [Compound 50, 7-(8-Chloro-4-isopropyl-7-ethoxy-2,2-dimethyl-2H-chromen-6-yl)-3-methyl-octa-2E,4E,6Z-trienoic acid], in assay [1], the Ki amounted to 0.076 µM. Further, the Ki in assay [2] turned out to be 0.738 µM. In addition, in assay [3], the EC50 was 0.002 µM and the Emax was found to be 56%.

As to `CC(/C=C/C(F)=C(/C)c1cc2c(c(Cl)c1OC(C)C)OC(C)(C)C=C2C(C)C)=C\C(=O)O` [Compound 174], the Ki in assay [1] stood at 0.319 µM. Also, the Ki in assay [2] came out at 0.532 µM. Further, in assay [3], the EC50 was found to be 0.059 µM and the Emax was found to be 8%.

On to `CCOc1cc2c(cc1\C(C)=C(F)/C=C/C(C)=C/C(=O)O)C(CC)=CC(C)(C)O2` [Compound 123, 7-(7-Ethoxy-4-ethyl-2,2-dimethyl-2H-chromen-6-yl)-6-fluoro-3-methyl-octa-2E,4E,6E-trienoic acid], for which the inhibition constant Ki in assay [1] and in assay [2] was greater than 10 µM throughout. Further, in assay [3], the EC50 was greater than 10 µM.

As for `CCC1=CC(C)(C)Oc2cc(OC)c(\C(C)=C(F)/C=C/C(C)=C/C(=O)O)cc21` [Compound 120, 7-(4Ethyl-7-methoxy-2,2-dimethyl-2H-chromen-6-yl)-6-fluoro-3-methyl-octa-2E,4E,6E-trienoic acid], the Ki in assay [1] came out at 2.6 µM; in assay [2], 4.1 µM. Moreover, the EC50 in assay [3] is greater than 10 µM.

With `COc1c(\C(C)=C(F)/C=C/C(C)=C/C(=O)O)cc2c(c1Cl)OC(C)(C)C=C2C(C)C` [Compound 170, 7-(8-Chloro-4-isopropyl-7-methoxy-2,2-dimethyl-2H-chromen-6-yl)-6-fluoro-3-methyl-octa-2E,4E,6E-trienoic acid], the Ki in assay [1] was determined as 0.007 µM. Also, the Ki in assay [2] worked out at 3.4 µM. In assay [3], the EC50 is 0.0008 µM and the Emax was 86%.

As usually defined, the Kd is a measure of binding affinity in units of concentration. For `CCOc1c(\C(C)=C(F)/C=C/C(C)=C/C(=O)O)cc2c(c1Br)C(C)(C)CC=C2C(C)(C)C` [Compound A-174, (2E,4E,6E)-7-(4-Bromo-8-tert-butyl-3-ethoxy-5,5-dimethyl-5,6-dihydro-naphthalen-2-yl)-6-fluoro-3-methyl-octa-2,4,6-trienoic acid], the Kd in assay [1] is 0.012 µM. Besides, in assay [2], the Kd is 0.997 µM. Besides, in assay [3], the EC50 was determined as 0.001 µM and the Emax was found to be 24%.

Turning to `CCOc1c(\C(C)=C(F)/C=C/C(C)=C/C(=O)O)cc2c(c1Br)C(C)(C)CC=C2C(C)C` [Compound A-169, (2E,4E,6E)-7-(4-Bromo-3-ethoxy-8-isopropyl-5,5-dimethyl-5,6-dihydro-naphthalen-2-yl)-6-fluoro-3-methyl-octa-2.4,6-trienoic acid], the Kd in assay [1] amounted to 0.016 µM; in assay [2], 0.07 µM. Further, the EC50 in assay [3] came to 0.0004 µM. For the same molecule, in assay [3], the Emax worked out at 66%.

On to `CCOc1c(\C(C)=C(F)/C=C/C(C)=C/C(=O)O)cc2c(c1Cl)OC(C)(C)C=C2C(C)C` [Compound 172, 7-(8-Chloro-4-isopropyl-7-ethoxy-2,2-dimethyl-2H-chromen-6-yl)-6-fluoro-3-methyl-octa-2E,4E,6E-trienoic acid], for which the Ki in assay [1] worked out at 0.085 µM. The Ki in assay [2] turned out to be 0.404 µM. In assay [3], the EC50 worked out at 0.0054 µM and the Emax was found to be 52%.

As for `COc1cc2c(cc1\C(C)=C(F)/C=C/C(C)=C/C(=O)O)C(C(C)(C)C)=CC(C)(C)O2` [Compound 122, 7-(4-tert-Butyl-7-methoxy-2,2-dimethyl-2H-chromen-6-yl)-6-fluoro-3-methyl-octa-2E,4E,6E-trienoic acid], the Ki in assay [1] worked out at 0.11 µM. For the same molecule, the Ki in assay [2] is 0.8 µM. In assay [3], the EC50 was 0.005 µM and the Emax was found to be 36%.

Turning to `CC(/C=C/C(F)=C(/C)c1cc2c(c(Br)c1OC(C)C)C(C)(C)CC=C2C(C)C)=C\C(=O)O` [Compound A-172, (2E,4E,6E)-7-(4-Bromo-3-isopropoxy-8-isopropyl-5,5-dimethyl-5,6-dihydro-naphthalen-2-yl)-6-fluoro-3-methyl-octa-2,4,6-trienoic acid], the Kd in assay [1] was determined as 0.041 µM; in assay [2], 0.141 µM. Besides, in assay [3], the EC50 was determined as 0.019 µM. Moreover, the Emax in assay [3] came out at 31%.

For `CCOc1c(\C(CC)=C(F)/C=C/C(C)=C/C(=O)O)cc2c(c1Cl)OC(C)(C)C=C2C(C)C` [Compound 173], in assay [1], the Ki worked out at 0.036 µM. In addition, the Ki in assay [2] came to 0.102 µM. Besides, in assay [3], the EC50 came to 0.0048 µM and the Emax came out at 18%.

As to `CCOc1c(\C(C)=C(F)/C=C/C(C)=C/C(=O)O)cc2c(c1Cl)C(C)(C)CC=C2C(C)C` [Compound A-177, (2E,4E,6E)-7-(4-Chloro-3-ethoxy-8-isopropyl-5,5-dimethyl-5,6-dihydronaphthalen-2-yl)6-fluoro-3-methyl-octa-2,4,6-trienoic acid], the Kd in assay [1] came out at 0.012 µM. Moreover, the Kd in assay [2] amounted to 0.06 µM. Besides, in assay [3], the EC50 was found to be 0.0001 µM and the Emax stood at 72%.
